Counter-ions that a name gives are not always drawn.
Test system: behaviors of compound-treated mice
Assay: Neuropharmacological Assay (SmartCube)
Format: in vivo
Conditions: for minimal effective dose: Mus musculus, ip, 0.25 h, dose having 50% or more total activity in SmartCube, i.p., read-out: MED (minimal effective dose); for AD: ADHD (probability that activity matches class) / AG: analgesic (probability that activity matches class) / AX: anxiolytic (probability that activity matches class) / CE: cognitive enhancer (probability that activity matches class) / DP: anti-depressant (probability that activity matches class) / MS: mood stabilizer (probability that activity matches class) / PS: anti-psychotic (probability that activity matches class) / SD: sedative hypnotic (probability that activity matches class) / UN: uncharacterized CNS activity (probability that activity matches class): i.p. 15 min before behavioral test, most efficacious dose(s) of 3 doses
In short: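 Mice dosed i.p. 15 min before testing, with compound in N-methyl-2-pyrrolidone/PEG/propylene glycol, were video-recorded and algorithmically compared with reference-drug behavioral signatures. This gave class-match probabilities (antidepressant, anxiolytic, etc.) at the most efficacious of 3 doses. MED was defined as the dose with ≥50% total activity, usually tested across 0.3–30 mpk.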

SMILES | minimal effective dose [mg/kg] | AD: ADHD (probability that activity matches class) | AG: analgesic (probability that activity matches class) | AX: anxiolytic (probability that activity matches class) | CE: cognitive enhancer (probability that activity matches class) | DP: anti-depressant (probability that activity matches class) | MS: mood stabilizer (probability that activity matches class) | PS: anti-psychotic (probability that activity matches class) | SD: sedative hypnotic (probability that activity matches class) | UN: uncharacterized CNS activity (probability that activity matches class)
CNC[C@@H]1OCCc2c(-c3ccno3)cccc21 [Compound 94, (R)-1-(5-(Isoxazol-5-yl)isochroman-1-yl)-N-methylmethanamine] | 10 to 30 | + (LOQ ≤ + <5%) | + (LOQ ≤ + <5%) | + (LOQ ≤ + <5%) | + (LOQ ≤ + <5%) | + (LOQ ≤ + <5%) | + (LOQ ≤ + <5%) | + (LOQ ≤ + <5%) | + (LOQ ≤ + <5%) | + (LOQ ≤ + <5%)
CNC[C@H]1OCCc2c(-c3ccno3)cccc21 [Compound 95, (S)-1-(5-(Isoxazol-5-yl)isochroman-1-yl)-N-methylmethanamine] | ≤ 3 | ++++ (50% ≤ ++++) | + (LOQ ≤ + <5%) | ++ (5% ≤ ++ <25%) | + (LOQ ≤ + <5%) | ++++ (50% ≤ ++++) | + (LOQ ≤ + <5%) | + (LOQ ≤ + <5%) | ++ (5% ≤ ++ <25%) | ++ (5% ≤ ++ <25%)
NC[C@@H]1OCCc2c(-c3cocn3)cccc21 [Compound 100, (R)-(5-(oxazol-4-yl)isochroman-1-yl)methanamine HCl salt] | 3 to 10 | + (LOQ ≤ + <5%) | + (LOQ ≤ + <5%) | ++ (5% ≤ ++ <25%) | + (LOQ ≤ + <5%) | + (LOQ ≤ + <5%) | + (LOQ ≤ + <5%) | + (LOQ ≤ + <5%) | + (LOQ ≤ + <5%) | ++++ (50% ≤ ++++)
NC[C@H]1OCCc2c(-c3cocn3)cccc21 [Compound 101, (S)-(5-(oxazol-4-yl)isochroman-1-yl)methanamine HCl salt] | 3 to 10 | ++ (5% ≤ ++ <25%) | + (LOQ ≤ + <5%) | ++ (5% ≤ ++ <25%) | + (LOQ ≤ + <5%) | ++ (5% ≤ ++ <25%) | + (LOQ ≤ + <5%) | + (LOQ ≤ + <5%) | + (LOQ ≤ + <5%) | ++ (5% ≤ ++ <25%)
CNC[C@@H]1OCCc2c(-c3cocn3)cccc21 [Compound 102, (R)—N-methyl-1-(5-(oxazol-4-yl)isochroman-1-yl)methanamine HCl salt] | 10 to 30 | + (LOQ ≤ + <5%) | + (LOQ ≤ + <5%) | ++ (5% ≤ ++ <25%) | + (LOQ ≤ + <5%) | + (LOQ ≤ + <5%) | + (LOQ ≤ + <5%) | + (LOQ ≤ + <5%) | + (LOQ ≤ + <5%) | + (LOQ ≤ + <5%)
CNC[C@H]1OCCc2c(-c3cocn3)cccc21 [Compound 103, (S)—N-methyl-1-(5-(oxazol-4-yl)isochroman-1-yl)methanamine HCl salt] | ≤ 3 | ++ (5% ≤ ++ <25%) | + (LOQ ≤ + <5%) | ++ (5% ≤ ++ <25%) | + (LOQ ≤ + <5%) | ++++ (50% ≤ ++++) | + (LOQ ≤ + <5%) | + (LOQ ≤ + <5%) | + (LOQ ≤ + <5%) | + (LOQ ≤ + <5%)
CNC[C@@H]1OCCc2c(-c3ncco3)cccc21 [Compound 104, (R)—N-Methyl-1-(5-(oxazol-2-yl)isochroman-1-yl)methanamine hydrochloride salt] | > 30 | + (LOQ ≤ + <5%) | + (LOQ ≤ + <5%) | ++ (5% ≤ ++ <25%) | + (LOQ ≤ + <5%) | ++ (5% ≤ ++ <25%) | + (LOQ ≤ + <5%) | + (LOQ ≤ + <5%) | + (LOQ ≤ + <5%) | + (LOQ ≤ + <5%)
CNC[C@H]1OCCc2c(-c3ncco3)cccc21 [Compound 105, (S)—N-methyl-1-(5-(oxazol-2-yl)isochroman-1-yl)methanamine dihydrochloride] | 3 to 10 | + (LOQ ≤ + <5%) | + (LOQ ≤ + <5%) | + (LOQ ≤ + <5%) | + (LOQ ≤ + <5%) | ++++ (50% ≤ ++++) | + (LOQ ≤ + <5%) | + (LOQ ≤ + <5%) | + (LOQ ≤ + <5%) | ++ (5% ≤ ++ <25%)
Cl.NC[C@@H]1OCCc2c(-c3ncco3)cccc21 [Compound 106, (R)-(5-(Oxazol-2-yl)isochroman-1-yl)methanamine hydrochloride salt] | 10 to 30 | + (LOQ ≤ + <5%) | + (LOQ ≤ + <5%) | +++ (25% ≤ +++ <50%) | ++ (5% ≤ ++ <25%) | ++ (5% ≤ ++ <25%) | + (LOQ ≤ + <5%) | + (LOQ ≤ + <5%) | + (LOQ ≤ + <5%) | + (LOQ ≤ + <5%)
NC[C@H]1OCCc2c(-c3ncco3)cccc21 [Compound 107, (S)-(5-(Oxazol-2-yl)isochroman-1-yl)methanamine hydrochloride salt] | 10 to 30 | + (LOQ ≤ + <5%) | + (LOQ ≤ + <5%) | + (LOQ ≤ + <5%) | + (LOQ ≤ + <5%) | +++ (25% ≤ +++ <50%) | + (LOQ ≤ + <5%) | + (LOQ ≤ + <5%) | + (LOQ ≤ + <5%) | + (LOQ ≤ + <5%)
NC[C@H]1OCCc2c(-c3ncc[nH]3)cccc21 [Compound 109, (S)-(5-(1H-Imidazol-2-yl)isochroman-1-yl)methanamine hydrochloride salt] | > 30 | + (LOQ ≤ + <5%) | + (LOQ ≤ + <5%) | ++ (5% ≤ ++ <25%) | + (LOQ ≤ + <5%) | ++ (5% ≤ ++ <25%) | + (LOQ ≤ + <5%) | + (LOQ ≤ + <5%) | + (LOQ ≤ + <5%) | + (LOQ ≤ + <5%)
